Key:
Type in all cases: cell-based
HTT CJ mRNA [1] = experiment: RT-qPCR splicing assay, HTT canonical junction (CJ) mRNA decrease; details: A673 or K562 cells, 24 hours compound treatment, top dose 10 uM; concentration having 50% response in CJ decrease
Method: (§1) Compounds described herein were used to modulate RNA transcript abundance in cells. The expression of a target mRNA was measured by detecting the formation of an exon-exon junction in the canonical transcript (CJ). A compound mediated exon-inclusion event was detected by observing an increase in formation of a new junction with an alternative exon (AJ). Real-time qPCR assays were used to detect these splicing switches and interrogate the potency of various compounds towards different target genes. A high-throughput real time quantitative PCR (RT-qPCR) assay was developed to measure these two isoforms of the mRNA (CJ and AJ) for an exemplary gene, HTT, together with a control housekeeping gene, GAPDH or GUSB or PPIA, used for normalization. Briefly, the A673 or K562 cell line was treated with various compounds described herein (e.g., compounds of Formula (I) or (II)). After treatment, the levels of the HTT mRNA targets were determined from each sample of cell lysate by cDNA synthesis followed by qPCR.
(§2) The A673 cell line was cultured in DMEM with 10% FBS. Cells were diluted with full growth media and plated in a 96-well plate (15,000 cells in 100 ul media per well). The plate was incubated at 37° C. with 5% CO2 for 24 hours to allow cells to adhere. An 11-point 3-fold serial dilution of the compounds was made in DMSO then diluted in media in an intermediate plate. Compounds were transferred from the intermediate plate to the cell plate with the top dose at a final concentration of 10 uM in the well. Final DMSO concentration was kept at or below 0.25%. The cell plate was returned to the incubator at 37° C. with 5% CO2 for an additional 24 hours.
(§3) The K562 cell line was cultured in IMDM with 10% FBS. For K562, cells were diluted with full growth media and plated in either a 96-well plate (50,000 cells in 50 uL media per well) or a 384-well plate (8,000-40,000 cells in 45 uL media per well). An 11-point 3-fold serial dilution of the compounds were made in DMSO then diluted in media in an intermediate plate. Compound was transferred from the intermediate plate to the cell plate with the top dose at a final concentration of 10 uM in the well. Final DMSO concentration was kept at or below 0.25%. Final volume was 100 uL for 96-well plate and 50 uL for 384-well plate. The cell plate was then placed in an incubator at 37° C. with 5% CO2 for 24 hours.
(§4) The cells were then gently washed with 50 uL-100 uL cold PBS before proceeding to addition of lysis buffer. 30 uL-50 uL of room temperature lysis buffer with DNAse I (and optionally RNAsin) was added to each well. Cells were shaken/mixed thoroughly at room temperature for 5-10 minutes for lysis to take place and then 3 uL-5 uL of room temperature stop solution was added and wells were shaken/mixed again. After 2-5 minutes, the cell lysate plate was transferred to ice for RT-qPCR reaction setup. The lysates could also be frozen at −80° C. for later use.
(§5) In some cases, a direct lysis buffer was used. An appropriate volume of 3× lysis buffer (10 mM Tris, 150 mM NaCl, 1.5%-2.5% Igepal and 0.1-1 U/uL RNAsin, pH 7.4) was directly added to either K562 or A673 cells in media and mixed by pipetting 3 times. The plates were then incubated at room temperature with shaking/rocking for 20-50 minutes to allow for lysis to take place. After this time, the cell lysate plate was transferred to ice to set up for the RT-qPCR reactions. The lysates could also be frozen at −80° C. for later use.
(§6) To set up 10 uL RT-qPCR reactions, cell lysates were transferred to 384-well qPCR plates containing the master mix according to the table below. The plates were sealed, gently vortexed, and spun down before the run. The volumes were adjusted accordingly in some instances where the reaction was carried in 20 uL. The table below summarizes the components of the RT-qPCR reactions:
(§7) The RT-qPCR reaction was performed using a QuantStudio (ThermoFisher) under the following fast cycling conditions. […]

HTT CJ mRNA [2] = experiment: Gene panel canonical junction qPCR assay, HTT; details: protocol as above, concentration having 50% response in CJ decrease, read-out: HTT IC50 (decrease in CJ mRNA levels)
Method: as §1, §2, §3, §4, §5, §6, §7

HTT AJ mRNA = experiment: RT-qPCR splicing assay, HTT alternative junction (AJ) mRNA increase; details: A673 or K562 cells, 24 hours compound treatment, top dose 10 uM; concentration having 50% response in AJ increase
Method: as §1, §2, §3, §4, §5, §6, §7

SMN2 CJ mRNA = experiment: Gene panel canonical junction qPCR assay, SMN2; details: protocol as above, concentration having 50% response in CJ decrease, read-out: SMN2 IC50 (decrease in CJ mRNA levels)
Method: as §1, with “After treatment, the levels of the HTT mRNA targets were determined from each sample of cell lysate by cDNA synthesis followed by qPCR.” left out
as §2, §3, §4, §5, §6
The RT-qPCR reaction was performed using a QuantStudio (ThermoFisher) under the following fast cycling conditions. All samples and standards were analyzed at least in duplicate. […]

Target C CJ mRNA = experiment: Gene panel canonical junction qPCR assay, Target C; details: protocol as above, concentration having 50% response in CJ decrease, read-out: Target C IC50 (decrease in CJ mRNA levels)
Method: as §1, §2, §3, §4, §5, §6, §7

Row | Structure (SMILES) | AC50 (HTT CJ mRNA [1]) | IC50 (HTT CJ mRNA [2]) | AC50 (HTT AJ mRNA) | IC50 (SMN2 CJ mRNA) | IC50 (Target C CJ mRNA)
1 | Cc1cc(-c2nc3cc(N4CCN(C)CC4)ccc3c(=O)[nH]2)cc2cn(C)nc12 [Compound 214, 2-(2,7-dimethyl-2H-indazol-5-yl)-7-(4-methylpiperazin-1-yl)quinazolin-4(3H)-one] | > 10 µM | > 10 µM | > 10 µM | > 10 µM | > 10 µM
2 | Cc1cc(-c2ccc3c(=O)[nH]c(N4CCN(C)CC4)nc3c2)cc2cn(C)nc12 [Compound 212, 7-(2,7-dimethyl-2H-indazol-5-yl)-2-(4-methylpiperazin-1-yl)quinazolin-4(3H)-one] | 1 to 10 µM | 1 to 10 µM | 1 to 10 µM | 1 to 10 µM | 1 to 10 µM
3 | Cn1cc2cc(-n3cnc4ccc(N5CCNCC5)cc4c3=O)cc(F)c2n1 [Compound 196, 3-(7-fluoro-2-methyl-2H-indazol-5-yl)-6-(piperazin-1-yl)quinazolin-4(3H)-one] | > 10 µM | > 10 µM | > 10 µM | > 10 µM | > 10 µM
4 | Cc1cn2nc(-n3cnc4ccc(N5CCNCC5)cc4c3=O)cc(C)c2n1 [Compound 201, 3-(2,8-dimethylimidazo[1,2-b]pyridazin-6-yl)-6-(piperazin-1-yl)quinazolin-4(3H)-one] | > 10 µM | > 10 µM | > 10 µM | > 10 µM | > 10 µM
5 | CN1CCN(c2ccc3ncn(-c4cc(F)c5nn(C)cc5c4)c(=O)c3c2)CC1 [Compound 194, 3-(7-fluoro-2-methyl-2H-indazol-5-yl)-6-(4-methylpiperazin-1-yl)quinazolin-4(3H)-one] | 1 to 10 µM | 1 to 10 µM | 1 to 10 µM | 1 to 10 µM | 1 to 10 µM
6 | Cc1cc(-c2nc3cc(N4CCNCC4)ccc3c(=O)[nH]2)cc2cn(C)nc12 [Compound 213, 2-(2,7-dimethyl-2H-indazol-5-yl)-7-(piperazin-1-yl)quinazolin-4(3H)-one] | > 10 µM | > 10 µM | > 10 µM | > 10 µM | > 10 µM
7 | CN(c1ccc2ncn(-c3cc(F)c4nn(C)cc4c3)c(=O)c2c1)C1CCNCC1 [Compound 198, 3-(7-fluoro-2-methyl-2H-indazol-5-yl)-6-(methyl(piperidin-4-yl)amino)quinazolin-4(3H)-one] | > 10 µM | > 10 µM | > 10 µM | > 10 µM | > 10 µM
8 | Cc1cn2cc(-n3cnc4ccc(N5CCN(C)CC5)cc4c3=O)cc(F)c2n1 [Compound 197, 3-(8-fluoro-2-methylimidazo[1,2-a]pyridin-6-yl)-6-(4-methylpiperazin-1-yl)quinazolin-4(3H)-one] | 1 to 10 µM | 1 to 10 µM | 1 to 10 µM | 1 to 10 µM | 1 to 10 µM
